# Data as given in PMC11881136, “Development of a Novel ^18F-Labeled Radioligand for Imaging Phosphodiesterase 7 with Positron Emission Tomography” (Molecular Pharmaceutics, 2025).
# Where two headings read alike, the source gives them in different places.
# Tests used:
# PDE7 [1] = assay: Phosphodiesterase 7 inhibition assay (Eurofins); assay type: biochemical; settings: for Inhibiton at 0.5 nM: PDE7, 0.5 nM
# Protocol: (§1) The inhibition assay of phosphodiesterase 7 with compounds 1–7 was performed by Eurofins. The inhibition assay of other phosphodiesterases with compound 7 was performed by Reaction Biology Corporation at a concentration of 3 μM.
# PDE7 [2] = assay: PET imaging in rat brains; assay type: in vivo
# Protocol: PET imaging was carried out as previously reported.[26] [^18F]7 (30–40 uCi) was administered to SD rats via the tail vein, and dynamic scans were conducted with a G8 scanner (Sofie) for 1 h (n = 4). In blocking studies, elacridar (5 mg/kg) was administered intravenously at 20 min before the administration of [^18F]7, and P7–2104 or 7 (3 mg/kg) was administered intravenously at 10 min before the administration of [^18F]7 (n = 3). PET data were analyzed with PMOD (PMOD Technologies LLC, Switzerland).
# other PDEs subfamilies = assay: Inhibition assay of other phosphodiesterases (Reaction Biology Corporation); assay type: biochemical; settings: 3 μM; other than PDE4
# Protocol: as §1
# 66 major CNS targets = assay: Off-target binding profile against 66 major CNS targets; settings: 10 μM; except 5-HT2B and Sigma1
# PDE7 [3] = assay: In vitro autoradiography in rat brain sections; assay type: binding; settings: blocker 10 μM
# Protocol: Autoradiography studies were conducted as previously reported.[24],[25] In brief, SD rat brain sections ([…]) were preincubated with buffer (Tris-HCl, 50 mM) at ambient temperature for 20 min and then incubated with [^18F]7 (1 μCi/mL) for 30 min. After that, the brain sections were washed with cold buffer and water, dried with cold air, and exposed to the phosphor plate (12 h). In blocking studies, brain sections were incubated with [^18F]7 in the presence of compound 7 (10 μM) or P7–2104 (10 μM).
# 5-HT2B = 5-HT2B (Homo sapiens, UniProt P41595); assay: Off-target binding: 5-HT2B
# PDE4B = biological target: T1, PDE4B (Homo sapiens, UniProt Q07343); assay: Inhibition assay of other phosphodiesterases: PDE4B; assay type: biochemical
# T1 construct: purchased Reaction Biology Corporation
# Protocol: as §1
# [4] = Log D, shake flask method; assay type: physicochemical; settings: n-octanol/PBS
# Protocol: PBS buffer (0.01 M) and n-octanol were presaturated with each other overnight before the measurement. The PDE7 ligand [^18F]7, PBS (0.01 M, 5 mL), and n-octanol (5 mL) were combined and vortexed for 3 min, and then centrifuged (∼14 000 rpm, 5 min). The PBS fraction and n-octanol fraction were weighted and counted by γ counter. The log D was calculated as log[(radioactivityn-octanol/weightn-octanol)/(radioactivityPBS/weightPBS)].
# Sigma1 = Sigma1 (Homo sapiens, UniProt Q99720); assay: Off-target binding: Sigma1
# PDE4 = assay: Inhibition assay of other phosphodiesterases: PDE4; assay type: biochemical; settings: 3 μM
# Protocol: as §1
# PDE7 [5] = biological target: PDE7; parameters: method as in PMID 32246980; settings: read-out: binding affinity KD toward PDE7; cited from earlier work
# [6] = parameters: method as in PMID 32246980; settings: cited from earlier work
# [7] = In vitro stability in NHP serum; assay type: in vitro ADME; settings: up to 60 or 120 min
# [8] = Radiometabolic analysis in rats; assay type: in vivo; settings: rat, 30 min post administration
# Protocol: [^18F]7 was injected via the tail vein of SD rats and then euthanized 30 min after administration of [^18F]7 (0.1 mCi per rat, n = 2). The brain was collected, homogenized, and cold acetonitrile (0.2 mL) was added then centrifuged (14 000g, 5 min) at 4 °C. This step was repeated until there was no obvious precipitation formed. Then the supernatant was injected into a radioHPLC with unlabeled 7 as the internal standard. Both [^18F]7 and its ^18F-metabolites were collected by HPLC and then measured by γ counter. The same procedure was conducted for plasma.
# [9] = In vitro stability in rat serum; assay type: in vitro ADME; settings: up to 60 or 120 min
# [10] = In vitro stability in human serum; assay type: in vitro ADME; settings: up to 60 or 120 min
# [11] = Ex vivo whole-body biodistribution in CD-1 mice; parameters: species or system mouse
# Protocol: Whole-Body biodistribution was carried out as previously reported.[27],[28] [^18F]7 (10 μCi/100 μL) was administered intravenously to CD-1 mice, which were sacrificed at 5, 15, 30, and 60 min after administration of [^18F]7 (n = 3). Tissues of interest were collected, weighted, and measured by a γ counter.
# [12] = In vitro stability in mouse serum; assay type: in vitro ADME; settings: up to 60 or 120 min
# [13] = In vitro stability in formulation solution (saline); assay type: physicochemical; settings: up to 60 or 120 min
# PDE7 [14] = system: PDE7; parameters: method as in PMID 26330158; settings: read-out: PDE7 inhibitory potency IC50; cited from earlier work
# T1 sequence (Q07343 whole entry, species assumed): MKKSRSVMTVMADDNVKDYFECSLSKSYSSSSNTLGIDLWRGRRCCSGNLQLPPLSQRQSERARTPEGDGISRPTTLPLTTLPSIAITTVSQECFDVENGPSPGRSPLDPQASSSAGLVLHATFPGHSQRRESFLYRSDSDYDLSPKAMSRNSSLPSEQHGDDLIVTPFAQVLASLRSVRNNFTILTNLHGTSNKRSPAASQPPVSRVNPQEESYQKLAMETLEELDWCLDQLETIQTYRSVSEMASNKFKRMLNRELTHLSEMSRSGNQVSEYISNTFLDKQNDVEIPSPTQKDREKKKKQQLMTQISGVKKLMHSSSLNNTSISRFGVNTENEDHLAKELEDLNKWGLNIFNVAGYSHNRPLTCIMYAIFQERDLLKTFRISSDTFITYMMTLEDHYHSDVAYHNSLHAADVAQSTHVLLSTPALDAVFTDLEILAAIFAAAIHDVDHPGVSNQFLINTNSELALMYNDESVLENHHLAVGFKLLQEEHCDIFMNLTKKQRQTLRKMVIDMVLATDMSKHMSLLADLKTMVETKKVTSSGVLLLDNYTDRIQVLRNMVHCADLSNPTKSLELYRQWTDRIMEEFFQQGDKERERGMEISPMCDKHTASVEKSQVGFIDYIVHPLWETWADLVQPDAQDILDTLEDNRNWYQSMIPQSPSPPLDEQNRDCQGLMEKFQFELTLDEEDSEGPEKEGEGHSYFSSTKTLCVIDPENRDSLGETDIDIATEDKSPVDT
# Chain of Sigma1 (Q99720 whole entry): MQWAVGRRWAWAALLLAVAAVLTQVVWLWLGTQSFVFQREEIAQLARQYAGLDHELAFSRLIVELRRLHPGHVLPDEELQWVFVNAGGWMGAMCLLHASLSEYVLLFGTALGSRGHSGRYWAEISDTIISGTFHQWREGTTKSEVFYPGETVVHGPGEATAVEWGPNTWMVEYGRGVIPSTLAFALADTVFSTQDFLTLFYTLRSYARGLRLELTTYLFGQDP
# Chain of 5-HT2B (P41595 whole entry, species assumed): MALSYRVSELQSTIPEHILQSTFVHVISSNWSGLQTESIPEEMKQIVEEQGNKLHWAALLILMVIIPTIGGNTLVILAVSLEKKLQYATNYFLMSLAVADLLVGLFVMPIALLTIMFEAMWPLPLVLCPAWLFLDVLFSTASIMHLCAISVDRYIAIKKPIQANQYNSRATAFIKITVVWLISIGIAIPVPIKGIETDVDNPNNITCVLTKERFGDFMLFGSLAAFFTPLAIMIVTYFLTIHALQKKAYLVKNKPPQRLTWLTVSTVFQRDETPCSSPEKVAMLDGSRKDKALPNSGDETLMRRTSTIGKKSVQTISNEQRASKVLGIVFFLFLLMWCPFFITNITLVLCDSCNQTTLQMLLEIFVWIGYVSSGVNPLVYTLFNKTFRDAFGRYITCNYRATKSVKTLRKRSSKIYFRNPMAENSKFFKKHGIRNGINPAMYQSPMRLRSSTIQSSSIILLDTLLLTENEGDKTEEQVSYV
structure (smiles),measurement,setting,value
"O=C1Nc2c(Cl)ccc(Oc3c(F)cccc3C(=O)N3CCC3)c2C2(CCCCC2)O1 [Compound 5, 5-(2-(Azetidine-1-carbonyl)-6-fluorophenoxy)-8-chlorospiro[benzo[d][1,3]oxazine-4,1′-cyclohexan]-2(1H)-one]",IC50,PDE7 [1],0.04 nM
same,Inhibiton at 0.5 nM,PDE7 [1],68%
"O=C1Nc2c(Cl)ccc(Oc3c(F)cccc3C(=O)N3CC(F)C3)c2C2(CCCCC2)O1 [Compound 7, 8-Chloro-5-(2-fluoro-6-(3-fluoroazetidine-1-carbonyl)phenoxy)spiro[benzo[d][1,3]oxazine-4,1′-cyclohexan]-2(1H)-one]",reduction of [18F]7 SUVpeak in striatum (PET blocking),"PDE7 [2]; blocker 3 mg/kg i.v. with elacridar 5 mg/kg, SD rats",51%
same,inhibition of other PDEs subfamilies,other PDEs subfamilies,< 50 % inhibition
same,off-target binding (>50% inhibition) against 66 major CNS targets,66 major CNS targets,No significant off-target binding
same,reduction of [18F]7 radioactivity signal in striatum (autoradiography blocking),PDE7 [3],56%
same,Ki,5-HT2B,3360 nM
same,IC50,PDE4B,77.3 nM
same,PDE4B inhibition,PDE4B; 3 μM,92 % inhibition
same,logD,[4],3.27
same,Ki,Sigma1,7410 nM
same,activity against PDE4,PDE4,moderately active
same,IC50,PDE7 [1],0.18 nM
same,selectivity for PDE7 over other PDE subfamilies,PDE7 [1],> 400 fold
same,Inhibiton at 0.5 nM,PDE7 [1],51%
"CN(C)C(=O)c1cc(F)ccc1Oc1ccc(Cl)c2c1C1(CCCCC1)OC(=O)N2 [Compound 3, 2-((8-Chloro-2-oxo-1,2-dihydrospiro[benzo[d][1,3]oxazine-4,1′-cyclohexan]-5-yl)oxy)-5-fluoro-N,N-dimethylbenzamide]",Inhibiton at 0.5 nM,PDE7 [1],-17%
"CN(C)C(=O)c1cccc(F)c1Oc1ccc(Cl)c2c1C1(CCCCC1)OC(=O)N2 [Compound 1, 2-((8-Chloro-2-oxo-1,2-dihydrospiro[benzo[d][1,3]oxazine-4,1′-cyclohexan]-5-yl)oxy)-3-fluoro-N,N-dimethylbenzamide]",Kd,PDE7 [5],0.8 nM
same,brain uptake,[6],0.25 %ID/g
same,IC50,PDE7 [1],0.41 nM
same,Inhibiton at 0.5 nM,PDE7 [1],50%
"CN(C)C(=O)c1ccc(F)cc1Oc1ccc(Cl)c2c1C1(CCCCC1)OC(=O)N2 [Compound 2, 2-((8-Chloro-2-oxo-1,2-dihydrospiro[benzo[d][1,3]oxazine-4,1′-cyclohexan]-5-yl)oxy)-4-fluoro-N,N-dimethylbenzamide]",Inhibiton at 0.5 nM,PDE7 [1],6%
"CN(C)C(=O)c1c(F)cccc1Oc1ccc(Cl)c2c1C1(CCCCC1)OC(=O)N2 [Compound 4, 2-((8-Chloro-2-oxo-1,2-dihydrospiro[benzo[d][1,3]oxazine-4,1′-cyclohexan]-5-yl)oxy)-6-fluoro-N,N-dimethylbenzamide]",Inhibiton at 0.5 nM,PDE7 [1],-10%
"CN(C(=O)c1cccc(F)c1Oc1ccc(Cl)c2c1C1(CCCCC1)OC(=O)N2)C1CC1 [Compound 6, 2-((8-Chloro-2-oxo-1,2-dihydrospiro[benzo[d][1,3]oxazine-4,1′-cyclohexan]-5-yl)oxy)-N-cyclopropyl-3-fluoro-N-methylbenzamide]",Inhibiton at 0.5 nM,PDE7 [1],-13%
O=C1Nc2c(Cl)ccc(Oc3c(F)cccc3C(=O)N3CC([18F])C3)c2C2(CCCCC2)O1 [[^18F]7],SUVpeak in striatum after elacridar,"PDE7 [2]; SD rats, elacridar 5 mg/kg i.v. 20 min before tracer",2.8
same,"SUVpeak in striatum, baseline","PDE7 [2]; SD rats, i.v., baseline",0.35
same,increase of SUVpeak in striatum by elacridar,PDE7 [2]; elacridar 5 mg/kg vs baseline,700%
same,in vitro stability in NHP serum,[7],no obvious decomposition or metabolite was observed
same,intact parent fraction in brain,[8],92%
same,intact parent fraction in plasma,[8],67%
same,in vitro stability in rat serum,[9],no obvious decomposition or metabolite was observed
same,in vitro stability in human serum,[10],no obvious decomposition or metabolite was observed
same,bone uptake at 5 min,[11]; 5 min,1.6 %ID/g
same,bone uptake at 60 min,[11]; 60 min,0.3 %ID/g
same,"initial radioactivity in liver, small intestine, kidney, pancreas, lung, and heart","[11]; i.v., initially",> 5 %ID/g
same,brain uptake (biodistribution),[11]; initially,low uptake
same,IC50,PDE7 [1],0.18 nM
same,selectivity for PDE7 over other PDE subfamilies,PDE7 [1],> 400 fold
same,in vitro stability in mouse serum,[12],no obvious decomposition or metabolite was observed
same,in vitro stability in saline,[13],no obvious decomposition or metabolite was observed
O=C1Nc2c(Cl)ccc(OCC[18F])c2C2(CCCCC2)N1 [[^18F]MICA-003],IC50,PDE7 [14],17 nM
